Experimental data from ChEMBL document CHEMBL5143624, “WCK 1152, WCK 1153: Discovery and structure activity relationship for the treatment of resistant pneumococcal and staphylococcal respiratory infections” (Bioorg Med Chem Lett, 2022).
Converted amounts (≈) assume the structure as drawn.

Assays:
Staphylococcus aureus [1] = test: Antibacterial activity against methicillin resistant Staphylococcus aureus assessed as inhibition of bacterial growth incubated for 18 hrs by CLSI based serial agar dilution method; type: functional; settings: Staphylococcus aureus, read-out: MIC
Streptococcus pneumoniae [2] = test: Antibacterial activity against Streptococcus pneumoniae assessed as inhibition of bacterial growth incubated for 18 hrs by CLSI based serial agar dilution method; type: functional; settings: Streptococcus pneumoniae, 18 h, read-out: MIC
Streptococcus pneumoniae [3] = test: Antibacterial activity against fluoroquinolone efflux positive Streptococcus pneumoniae 706 assessed as inhibition of bacterial growth incubated for 18 hrs by CLSI based serial agar dilution method; type: functional
Streptococcus pneumoniae [4] = test: Antibacterial activity against Streptococcus pneumoniae 5844 harbouring moxifloxacin resistant DNA gyrase and topoisomerase IV mutant assessed as inhibition of bacterial growth incubated for 18 hrs by CLSI based serial agar dilution method; type: functional; settings: Streptococcus pneumoniae, 5844, 18 h
Staphylococcus aureus [5] = test: Antibacterial activity against methicillin resistant Staphylococcus aureus 032 assessed as inhibition of bacterial growth incubated for 18 hrs by CLSI based serial agar dilution method; type: functional
Staphylococcus aureus [6] = test: Antibacterial activity against Staphylococcus aureus […] assessed as inhibition of bacterial growth incubated for 18 hrs by CLSI based serial agar dilution method; type: functional
Staphylococcus aureus [7] = test: Antibacterial activity against methicillin resistant Staphylococcus aureus 5076 harbouring DNA gyrase and topoisomerase IV mutant and efflux pump assessed as inhibition of bacterial growth incubated for 18 hrs in presence of efflux inhibitor by CLSI based serial agar dilution method; type: functional
Streptococcus pneumoniae [8] = test: Antibacterial activity against beta-lactams, macrolide and fluoroquinolone resistant Streptococcus pneumoniae 718 infected in po dosed Swiss mouse septicemia model assessed as protective dose administered on 1 and 5 hrs post infection and measured on day 7; type: functional, organism-based

`CC1(C)CN(c2c(F)cc3c(=O)c(C(=O)O)cn(C4CC4)c3c2F)CCC1N` (configuration not stated) gave an MIC (Staphylococcus aureus [1]) of 3.12 µg/mL (≈ 7.97 µM) and an MIC (Streptococcus pneumoniae [2]) of 0.4 µg/mL (≈ 1.02 µM).

Work on `CCC1CN(c2c(F)cc3c(=O)c(C(=O)O)cn(C4CC4)c3c2OC)CCC1N` (configuration not stated) yielded an MIC (Staphylococcus aureus [1]) of 0.1 µg/mL (≈ 0.248 µM) and an MIC (Streptococcus pneumoniae [2]) of 0.8 µg/mL (≈ 1.98 µM).

With `COc1c(N2CC(C)C(N)C(C)(C)C2)c(F)cc2c(=O)c(C(=O)O)cn(C3CC3)c12` (configuration not stated) the MIC (Staphylococcus aureus [1]) was 0.1 µg/mL (≈ 0.24 µM) and the MIC (Streptococcus pneumoniae [2]) was 0.2 µg/mL (≈ 0.479 µM).

`CCNC1CCN(c2c(F)cc3c(=O)c(C(=O)O)cn(C4CC4)c3c2OC)CC1C` (configuration not stated) showed an MIC (Staphylococcus aureus [1]) of 0.4 µg/mL (≈ 0.958 µM) and an MIC (Streptococcus pneumoniae [2]) of 1.56 µg/mL (≈ 3.74 µM).

`COc1c(N2CCC(N)C(C)(C)C2)c(F)c(N)c2c(=O)c(C(=O)O)cn(C3CC3)c12` (configuration not stated) gave an MIC (Staphylococcus aureus [1]) of 3.12 µg/mL (≈ 7.46 µM) and an MIC (Streptococcus pneumoniae [2]) of 0.2 µg/mL (≈ 0.478 µM).

`CC1(C)CN(c2ccc3c(=O)c(C(=O)O)cn(-c4ccc(F)cc4F)c3n2)CCC1N` (configuration not stated) was tested, and the MIC (Staphylococcus aureus [1]) was > 12.5 µg/mL and the MIC (Streptococcus pneumoniae [2]) was 1.56 µg/mL (≈ 3.64 µM).

`CNC1CCN(c2c(F)cc3c(=O)c(C(=O)O)cn(C4CC4)c3c2OC)CC1(C)C` (configuration not stated) showed an MIC (Staphylococcus aureus [1]) of 0.2 µg/mL (≈ 0.479 µM), an MIC (Streptococcus pneumoniae [2]) of 1.56 µg/mL (≈ 3.74 µM) and an MIC (Streptococcus pneumoniae [3]) of 1.56 µg/mL (≈ 3.74 µM).

For `Cc1c(F)c(N2CCC(N)C(C)(C)C2)cc2c1c(=O)c(C(=O)O)cn2C1CC1` (configuration not stated), the MIC (Staphylococcus aureus [1]) was > 12.5 µg/mL and the MIC (Streptococcus pneumoniae [2]) was 0.8 µg/mL (≈ 2.06 µM).

`CCC1(C)CN(c2c(F)cc3c(=O)c(C(=O)O)cn(C4CC4)c3c2OC)CCC1NC` (configuration not stated) gave an MIC (Streptococcus pneumoniae [4]) of 6.25 µg/mL (≈ 14.5 µM) and an MIC (Streptococcus pneumoniae [3]) of 1.56 µg/mL (≈ 3.62 µM).

For `COc1c(N2CC[C@@H](N)C(C)(C)C2)c(F)c(N)c2c(=O)c(C(=O)O)cn(C3CC3)c12`, the MIC (Staphylococcus aureus [1]) was > 12.5 µg/mL and the MIC (Streptococcus pneumoniae [2]) was 6.25 µg/mL (≈ 14.9 µM).

In the case of `COc1c(N2CCC(NC3CC3)C(C)C2)c(F)cc2c(=O)c(C(=O)O)cn(C3CC3)c12` (configuration not stated), the MIC (Staphylococcus aureus [1]) was 0.4 µg/mL (≈ 0.931 µM) and the MIC (Streptococcus pneumoniae [2]) was 1.56 µg/mL (≈ 3.63 µM).

`Cc1c(F)c(N2CCC(N)C(C)(C)C2)nc2c1c(=O)c(C(=O)O)cn2-c1ccc(F)cc1F` (configuration not stated) was tested, and the MIC (Staphylococcus aureus [1]) was > 12.5 µg/mL and the MIC (Streptococcus pneumoniae [2]) was 1.56 µg/mL (≈ 3.39 µM).

In the case of `CNC1C(C)CN(c2c(F)cc3c(=O)c(C(=O)O)cn(C4CC4)c3c2OC)CC1C` (configuration not stated), the MIC (Staphylococcus aureus [1]) was 0.1 µg/mL (≈ 0.24 µM) and the MIC (Streptococcus pneumoniae [2]) was 0.4 µg/mL (≈ 0.958 µM).

`Cc1c(N2CCC(N)C(C)C2)c(F)cc2c(=O)c(C(=O)O)cn(C3CC3)c12.Cl` (configuration not stated) showed an MIC (Staphylococcus aureus [5]) of 1.56 µg/mL.

In the case of `CCC1(C)CN(c2c(F)cc3c(=O)c(C(=O)O)cn(C4CC4)c3c2OC)CCC1NC1CC1` (configuration not stated), the MIC (Streptococcus pneumoniae [4]) was > 6.25 µg/mL and the MIC (Streptococcus pneumoniae [3]) was 0.4 µg/mL (≈ 0.874 µM).

`COc1c(N2CC[C@@H](N)C(C)(C)C2)c(F)cc2c(=O)c(C(=O)O)cn(C3CC3)c12` gave an MIC (Staphylococcus aureus [1]) of 0.05 µg/mL (≈ 0.124 µM), an MIC (Staphylococcus aureus [5]; Staphylococcus aureus, 032, 18 h, read-out: MIC) of 0.8 µg/mL (≈ 1.98 µM) and an MIC (Staphylococcus aureus [6]) of 0.05 µg/mL (≈ 0.124 µM). The MIC (Staphylococcus aureus [7]) was 1.56 µg/mL and the EC50 (Streptococcus pneumoniae [8]) was 20 mg/kg.

`COc1c(N2CC(C)C(N(C)C)C(C)C2)c(F)cc2c(=O)c(C(=O)O)cn(C3CC3)c12` (configuration not stated) showed an MIC (Staphylococcus aureus [1]) of 0.1 µg/mL (≈ 0.232 µM), an MIC (Streptococcus pneumoniae [2]) of 0.2 µg/mL (≈ 0.463 µM) and an MIC (Streptococcus pneumoniae [3]) of 0.2 µg/mL (≈ 0.463 µM).

`CCN(CC)C1CCN(c2c(F)cc3c(=O)c(C(=O)O)cn(C4CC4)c3c2OC)CC1` gave an MIC (Staphylococcus aureus [1]) of 0.2 µg/mL (≈ 0.463 µM) and an MIC (Streptococcus pneumoniae [2]) of 0.8 µg/mL (≈ 1.85 µM).

For `CCn1cc(C(=O)O)c(=O)c2cc(F)c(N3CCC(N)C(C)(C)C3)c(OC)c21` (configuration not stated), the MIC (Staphylococcus aureus [1]) was 6.25 µg/mL (≈ 16 µM) and the MIC (Streptococcus pneumoniae [2]) was 1.56 µg/mL (≈ 3.99 µM).

Work on `COc1c(N2CCC(NC(C)=O)C(C)(C)C2)c(F)cc2c(=O)c(C(=O)O)cn(C3CC3)c12` (configuration not stated) yielded an MIC (Staphylococcus aureus [1]) of 0.4 µg/mL (≈ 0.898 µM) and an MIC (Streptococcus pneumoniae [2]) of 1.56 µg/mL (≈ 3.5 µM).

`CCC1(CC)CN(c2c(F)cc3c(=O)c(C(=O)O)cn(C4CC4)c3c2OC)CCC1N` (configuration not stated) was tested, and the MIC (Streptococcus pneumoniae [4]) was 6.25 µg/mL (≈ 14.5 µM) and the MIC (Streptococcus pneumoniae [3]) was < 0.4 µg/mL.

In the case of `Cc1c(F)c(N2CCC(N)C(C)(C)C2)c(F)c2c1c(=O)c(C(=O)O)cn2C1CC1` (configuration not stated), the MIC (Staphylococcus aureus [1]) was 3.12 µg/mL (≈ 7.7 µM) and the MIC (Streptococcus pneumoniae [2]) was 0.1 µg/mL (≈ 0.247 µM).

With `CC1(C)CN(c2nc3c(cc2F)c(=O)c(C(=O)O)cn3C2CC2)CCC1N` (configuration not stated) the MIC (Staphylococcus aureus [1]) was > 12.5 µg/mL and the MIC (Streptococcus pneumoniae [2]) was 3.12 µg/mL (≈ 8.33 µM).

With `COc1c(N2CCC(NC3CC3)C(C)(C)C2)c(F)cc2c(=O)c(C(=O)O)cn(C3CC3)c12` (configuration not stated) the MIC (Staphylococcus aureus [1]) was 0.2 µg/mL (≈ 0.451 µM), the MIC (Streptococcus pneumoniae [2]) was 0.8 µg/mL (≈ 1.8 µM) and the MIC (Streptococcus pneumoniae [3]) was 0.8 µg/mL (≈ 1.8 µM).

With `COc1c(N2CCC(N)C(C)(C)C2)c(F)c(N)c2c(=O)c(C(=O)O)cn(-c3ccc(F)cc3F)c12` (configuration not stated) the MIC (Staphylococcus aureus [1]) was 12.5 µg/mL (≈ 25.5 µM) and the MIC (Streptococcus pneumoniae [2]) was 3.12 µg/mL (≈ 6.36 µM).

`CC1(C)CN(c2c(F)c(N)c3c(=O)c(C(=O)O)cn(C4CC4)c3c2F)CCC1N` (configuration not stated) gave an MIC (Staphylococcus aureus [1]) of 3.12 µg/mL (≈ 7.68 µM) and an MIC (Streptococcus pneumoniae [2]) of 0.1 µg/mL (≈ 0.246 µM).

For `CCC1(C)CN(c2c(F)cc3c(=O)c(C(=O)O)cn(C4CC4)c3c2OC)CCC1N` (configuration not stated), the MIC (Staphylococcus aureus [1]) was 0.1 µg/mL (≈ 0.24 µM), the MIC (Streptococcus pneumoniae [2]) was 0.2 µg/mL (≈ 0.479 µM) and the MIC (Streptococcus pneumoniae [4]) was 2.5 µg/mL (≈ 5.99 µM).

`CNC1CCN(c2c(F)cc3c(=O)c(C(=O)O)cn(C4CC4)c3c2OC)CC1C` (configuration not stated) showed an MIC (Staphylococcus aureus [1]) of 0.2 µg/mL (≈ 0.496 µM) and an MIC (Streptococcus pneumoniae [2]) of 1.56 µg/mL (≈ 3.87 µM).
